Consider one compound from patent US20260108547A1, “LEVERAGING L-FUCOSE-MEDIATED SIGNALING TO INDUCE MONOCYTE-DERIVED DENDRITIC CELL POLARIZATION” (H. LEE MOFFITT CANCER CENTER AND RESEARCH INSTITUTE, INC., priority 2022, published 2026).

The test system of assay [1] is SW1 tumors. The experiment in a line: Flow cytometric profiling of tumors and lymph nodes, SW1 tumors in C3H/HeN mice fed ± L-fucose and treated ± FTY720 (Table 1). It is filed as in vivo, mouse. The conditions noted are these: for average # of CD8 stem central memory cells: tumors. The protocol:
(§1) Tumors of SW1 or SM1 melanoma cells from […] or C57BL/6 mice, respectively) were digested using 1× tumor digest buffer (0.5 mg/mL Collagenase I, 0.5 mg/mL Collagenase IV, 0.25 mg/mL Hyalyronidase V, 0.1 mg/mL DNAse I in HBSS (Millipore Sigma (St. Louis, MO)). Tumors were homogenized using the Miltenyi MACs dissociator. Red blood cells were lysed using ACK lysis buffer (Life Technologies, (Grand Island, NY)). Tumor homogenate cells were counted using a standard hemocytometer.
(§2) Total TILs were gated first to single cells (based on forward scatter height vs width, followed by side scatter height vs. width). Live cells were gated from the Zombie negative population from the population above. TILs were gated based on splenocyte size from a control spleen. Individual immune subpopulations were sub-gated from the total TIL population using the following staining criteria: CD3^+ for CD3^+ T cells; CD3^+/CD4^+/CD8^− for CD4^+T cells; CD3^+/CD4^−/CD8^+ for CD8^+ T cells, CD11c^+/CD11b^+ for DCs; either NK1.1 (for C57/BL6 mice) or DX5 (for C3H/HeJ) for NK cells; CD11b^+/GR1^+ for MDSC-like cells; and F4/80^+ for macrophages. Single-cell suspensions from tumor and spleen tissue were stained with Live/Dead Zombie NIR (Biolegend, (San Diego, CA)) at 1:1,000 in PBS for 20 min. Cell suspensions were spun down and stained with the following with antibodies at 0.5 μg/ml per antibody: APC anti-mouse CD3, Pacific Blue anti-mouse CD4, BV785 anti-mouse CD8, PerCP anti-mouse CD25, FITC anti-mouse F4/80, PeCy7 anti-mouse CD11c, PE anti-mouse NK1.1 or PE anti-mouse DX5, and PerCP-Cy5.5 anti-mouse CD11b. After staining, the cells were washed and fixed (2% formaldehyde), followed by another wash and flow cytometric analysis. The compensation controls were prepared using 0.5 μg/mL of each antibody with UltraComp eBeads, (ThermoFisher Scientific (Waltham, MA)). All samples were subject to flow cytometric profiling using a LSR Flow Cytometer (BD Biosciences (San Jose, CA)) and analysis as indicated using FlowJo software (BD Biosciences (San Jose, CA)).
For all mouse models, 1×10^6 melanoma cells were injected subcutaneously in the right hind flanks of each mouse. […] This dosage is within ranges for dietary supplementation with L-fucose and other similar dietary sugars (e.g., D-mannose) in other rodent studies. When the tumors reached −2 cm^3, the animals were sacrificed, and the tumors either processed for flow cytometric profiling or for histological analysis as indicated.
Control vs. L-fucose±FTY720 models (FIG. 2): SW1 or SM1 mouse melanoma cells were injected into syngeneic C3H/HeN (or NSG) female or C57BL/6 male mice, respectively. Cells were injected as follows: parental SW1 cells for FIG. 1A; parental SM1 cells for FIG. 1E; SW1 cells stably expressing either empty vector (EV) or mouse fucose kinase (mFuk) for FIG. 1L; and parental SW1 cells for FIG. 1M. FTY720 was administered at 20 μg every 2 days starting on Day 12, just prior to the initiation of LF, until endpoint.

Assay [2] has as its system SW1 tumors. The experiment in a line: itIC and splenic flow cytometric profiling, SW1 tumor-bearing C3H/HeN mice. The class given is in vivo, mouse. Particulars: oral L-fuc; SW1 model. The protocol:
as §1, §2

Assay [3] relates to moDCs. Description: moDC cytokine production, qPCR and immunoblot of signaling pathways. It is filed as cell-based. From the text: To determine if the changes in DC polarization and CD209 expression were associated with differential signaling changes in moDCs we analyzed known suppressive and stimulatory pathways by (FIG. 25A) cytokine production and (FIG. 25B) qPCR. […] (C) To elucidate the mechanism by which L-fucose was repressing immunosuppression in moDCs we preformed immunoblot analysis of several key signaling pathways in moDC activation of cells treated +/−L-fucose and +/−maturation via LPS. Additionally, we identified transcription factors that may play a role in altering the signaling and cytokine profiles of moDC to further validate the changes in immunomodulatory activity we observe.

The subject of assay [4] is moDCs. The experiment in a line: moDC dendrite length, phagocytosis (bead uptake) and Fitc-dextran uptake. It is filed as cell-based. From the text: Our preliminary studies have begun to dissect and highlight moDC signaling changes induced by L-fuc treatment. Here, we present and discuss our novel findings on L-fuc-induced DC/moDC biology, the key mechanistic signaling changes that mediate these effects, and the important translational implications of these findings for efforts aimed at increasing/enhancing intratumoral DC function and anti-tumor immune responses.
Next we wanted to determine if L-fucose enhances the function phenotype of moDCs. […] Having determined that L-fucose alters the signaling of moDCs leading to an immunostimulatory phenotype, we next sought to identify other components of DC biology that are affected. To this end we examined L-fucose-treated mature dendritic cells for changes in (FIG. 26A) dendrite length and (FIG. 26B) phagocytosis by neutral bead uptake which may correlate with differential anti-tumor capacity in the TME.

Assay [5] in a line: Mouse models of tumor growth and metastasis, dietary L-fucose supplementation. The class given is in vivo.
For assay [6], the system named is bone marrow-derived MCs (BMMCs). Description: BMMC / T cell ex vivo co-culture (CTV proliferation, interferon-gamma release). The class given is cell-based. The source says: We next sought to see how the immunostimulatory capacity of these cells was altered after L-fucose treatment by culturing L-fucose modulated, either by decreased fucosylation via 2FF or increased fucosylation by L-fuc, MCs with immature T cells to asses (FIG. 22B) proliferation by loss of CTV staining and (FIG. 22C) T cell activation as evident by interferon-gamma release.

The subject of assay [7] is PD-L1. Description: Flow cytometric assessment of cell surface PD-L1, human melanoma cells (WM793). It is filed as cell-based. As to the method:
(§3) Indicated cells were treated for 72 h with DMSO, 250 μM fucosyltransferase inhibitor (FUTi) (Millipore Sigma (St. Louis, MO)), or 250 μM of L-fucose (Biosynth (Oak Terrace, IL)). After 72 h, cells were stained with 0.1 μM PKH26 (Millipore Sigma (St. Louis, MO)) prior to fixation in 4% formaldehyde solution. The cells were stained with anti-HLA-DRB1 and fluorescein AAL, or anti-human or anti-mouse PD-L1 overnight. The following day the cells were washed 3 times prior to adding AlexaFluor 594 donkey anti-rabbit. Cells were washed 3 times and then subject to flow cytometric analyses using a FACSCalibur (BD Biosciences (San Jose, CA)). Samples were analyzed using FlowJo analysis software (BD Biosciences (San Jose, CA)). Median values of DRB1 and AAL were normalized to PKH26 values and statistical analysis was performed using GraphPad Prism.

In assay [8] the test system is PD-L1. The experiment in a line: Flow cytometric assessment of cell surface PD-L1, mouse melanoma cells (SW1, SM1). It is filed as cell-based. The protocol:
as §3

The structures appear in SMILES notation.

`C[C@H](O)[C@@H](O)[C@@H](O)[C@H](O)C=O` [L-fucose]: in the assay on SW1 tumors [1] (Day 28), the “average # of CD8 stem central memory cells” value was determined as 0.00 per 10^6 cells. Besides, the “average # of CD8 stem central memory cells” value in the assay on SW1 tumors [1] (Day 42) turned out to be 0.00 per 10^6 cells. The “intratumoral CD4+T central and effector memory subpopulations” value in the assay with SW1 tumors [1] (SW1 model ± FTY720) is recorded as “increases”. In addition, in the assay with SW1 tumors [1] (midpoint (Day 28)), the “cytotoxic CD4+T cells” value is “transiently but significantly increased”. Moreover, the “intratumoral monocyte-derived DCs (moDCs) and lymph node cDC2s” value in the assay on SW1 tumors [1] (oral L-fuc, SW1 model) is given as “significant, albeit transient, increases”. In the assay with SW1 tumors [2], the “CD4+ and CD8+ T cells, most increased subpopulation of total itICs” value is recorded as “doubled”; the “increased total itICs” value is 10-50 fold; the splenic lymphocyte profiles entry is “without altering splenic lymphocyte profiles”. In addition, the “immunosuppressive signature of DCs” value with moDCs [3] (cytokine production, qPCR) is “decreased immunosuppressive signature”. Also, the “iNOS and p65 activation in moDC” value with moDCs [3] (immunoblot, +/- LPS maturation) was “decreased iNOS and p65 activation”. Further, the “dendrite length of moDCs” value in the assay on moDCs [4] is recorded as “increased”. Moreover, in the assay with moDCs [4] (compared with untreated DCs), the “uptake of exogenous Fitc-dextran bait by L-fuc-induced moDCs” value is given as “significantly increased rate”. In addition, the “phagocytosis of moDCs” value in the assay on moDCs [4] (neutral bead uptake) is on record as “increased”. Besides, the “blocks tumor growth and metastasis” value in assay [5] is on record as above 50%. Also, the “immunostimulatory capacity of treated dendritic cells (DCs)” value in assay [6] is “enhanced immunostimulatory capacity”. The “cell surface levels of PD-L1” value with PD-L1 [7] is listed as “does not alter”. In the assay with PD-L1 [8], the “cell surface levels of PD-L1” value is recorded as “does not alter”.
